Literature values as cited in patent publication US20200230082A1, “TOPICAL ACETAMINOPHEN FORMULATIONS FOR ITCH RELIEF” (UNIVERSITY OF MIAMI, priority 2017, published 2020).
Where two headings read alike, the source gives them in different places.

CC(=O)Nc1ccc(O)cc1 [acetaminophen]
Solubility % (solvent: Ethanol): 37^1%
Solubility % (solvent: PEG-400): 18.9^3%
Solubility % (solvent: Propylene Glycol): 9.8^2%
Solubility % (solvent: Water): 1.7^1%
